Legend:
[1] = test system: Mycobacterium tuberculosis; assay: MMV: Screen against Mtb, single point, non replicating, at 25uM; format: functional
[2] = test system: Mycobacterium tuberculosis; assay: MMV: Screen against Mtb, single point, replicating, at 25uM; format: functional

Row | SMILES | inhibition at 25 µM [1] [%] | inhibition at 25 µM [2] [%]
1 | COc1ccc2c(c1)C1(Nc3ccccc3-c3nc4ccccc4n31)C(=O)N2 (stereo not drawn) | 10.8 | 0.517
2 | CCOc1cc(CNC(C)C(O)c2ccccc2)cc(Cl)c1OCC (stereo not drawn) | 9.76 | 18.6
3 | CCOc1c(Cl)cc(CNCC(O)c2ccccc2)cc1OC (stereo not drawn) | 6.97 | 11.9
4 | OC(CNCC1CCCO1)Cn1c2ccc(Cl)cc2c2cc(Cl)ccc21 (stereo not drawn) | 20.4 | 1.28
5 | CC1(c2ccccc2)Nc2ccccc2-c2nc3ccccc3n21 (stereo not drawn) | 12 | 8.87
6 | COc1cccc(C2(C)Nc3ccccc3-c3nc4ccccc4n32)c1 (stereo not drawn) | 8.19 | 14.9
7 | CC(C)CNC(=O)c1c(N)n(CCc2ccccc2F)c2nc3ccccc3nc12 | 2.78 | 14.8
8 | COc1ccc2nc(C)cc(Nc3ccc(Cl)cc3)c2c1 | 7.32 | 41.2
9 | CCC(O)c1ccc(Br)cc1NC(=O)c1cccc(Cl)c1 (stereo not drawn) | 14.6 | 13.9
10 | Cc1sc2ncnc(Sc3nc4ccccc4[nH]3)c2c1C | 22.5 | 14.9
11 | CC(=O)Nc1nnc(SCc2c(C)cc(C(C)(C)C)cc2C)s1 | 19.7 | 3.55
12 | O=C(Nc1ccc(CN2CCOCC2)cc1)c1ccc(-c2cc(Cl)ccc2Cl)o1 | 14.5 | 17.1
13 | COCCn1c(C)nc2ccccc2c1=O | 13.6 | 6.59
14 | O=C(Nc1cccc(-c2nc3ccccc3[nH]2)c1)c1cccc(NC(=O)c2ccco2)c1 | 46.1 | 21.2
15 | O=C(NC1CCN(Cc2ccccc2)CC1)c1cc(-c2cccnc2)nc2ccc(Cl)cc12 | 18 | 14.3
16 | CCN(Cc1ccccc1)C1CCN(Cc2cc(Br)ccc2O)CC1 | 12.7 | 16.8
17 | COc1ccc(-c2nonc2NC(=O)c2cccc(Cl)c2)cc1OC | 15.7 | 9.93

Row | SMILES | inhibition at 25 µM [1] [%] | inhibition at 25 µM [2] [%]
18 | Cc1cc(NC(=O)c2ccc(-c3ccccc3)cc2)no1 | 13.8 | 8.72
19 | CCOc1cc2c(cc1OCC)C(c1cc(C)c(O)c(C)c1)NCC2 (stereo not drawn) | 11.5 | 10.8
20 | O=C1CC(O)(C(F)(F)C(F)(F)F)Oc2ccccc21 (stereo not drawn) | 39.1 | 13
21 | COc1cc(SC)ccc1C(=O)N1CCCC(C)C1 (stereo not drawn) | 8.89 | 17.4
22 | CC(C)c1ccc(CNCC(O)c2ccccc2)cc1 (stereo not drawn) | 11.7 | 30.9
23 | O=c1nc(C=Cc2ccc(Cl)cc2)oc2ccccc12 | 7.84 | 46.8
24 | O=C(NCc1ccco1)C1CCN(S(=O)(=O)c2ccc(Br)cc2)CC1 | 10.5 | 13
25 | COc1cc2c(cc1OC)C1=NNC(=O)C1=NC(C)(C)C2 | 26.7 | 11.3
26 | Oc1c2c(nc3cc(-c4ccccc4)nn13)CCCC2 | 10.3 | 19.8
27 | CCCCc1c(C)nc2c(OC)cccc2c1O | 6.62 | 26.3
28 | CCOC(=O)C1CCN(C(=O)CN2C(=O)c3ccccc3C2c2c[nH]c3ccccc23)CC1 (stereo not drawn) | 8.89 | 4.16
29 | CCOc1ccc(CCNC(=O)c2cccs2)cc1OCC | 15 | 30
30 | Cc1cc(N2CCN(C3CCCC3)CC2)n2c(nc3ccccc32)c1C#N | 11.5 | 7.81
31 | CCCCOc1ccc(C(=O)Nc2cc(C)on2)cc1 | 15 | 23.1
32 | CCc1ccc(Nc2cc(C)nc3nc(C)nn23)cc1 | 9.06 | 11.4
33 | CCN(CC)S(=O)(=O)c1ccc(-c2csc(Nc3ccc(C)c(C)c3)n2)cc1 | 14.1 | 6.89
34 | Cc1c(C)n(CC(O)CNC2CCCCC2C)c2ccccc12 (stereo not drawn) | 7.84 | 24.7

— ChEMBL document CHEMBL2094260, “Malaria Box Tuberculosis Screening Data”
